# From US20260306460A1, “COMPOSITION FOR REMOVING AND INHIBITING SENESCENT CELLS, AND USES THEREOF” (LIFECEUTIX CO., LTD., priority 2023, published 2026)
# “Also recorded” adds a separate entry of the source.
# Columns and labels:
# [1] = test system: senescent human cells; test: Viability of doxorubicin-induced senescent human cells (CellTiter-Glo), Example 11; assay type: cell-based; details: excessive concentrations (1 or 20 mM)
# Description: Cells in which senescence was induced by treatment with doxorubicin were treated with the test compound at designated concentrations and measured using the CellTiter-Glo Luminescent Cell Viability Assay (Promega).
# After 3 days, cell viability was measured using CellTiter-Glo Luminescent Cell Viability Assay (Promega) or light microscopy.
# [2] = test system: senescent foreskin cells; test: Survival of senescent human cells treated with supernatant (secreted fluid) from death-induced cells, Example 13; assay type: cell-based; details: for Survival: Table 8, supernatant from dying senescent cells treated at 30, 90 or 270 μM (as Example 11), senescent treated cells
# [3] = test system: HMGN1 secreted from senescent A549 cells; test: HMGN1 secretion (ELISA) from senescent A549 cancer cells, Example 12; assay type: cell-based, human; details: senescent untreated = 100%; 30 μM; 90 μM for LX-305, 905, 1302, 1601, 1603, 2003, 2702, 2901, 3106; 270 μM for LX-1103, 2005, 2007;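 note: A549 cells made senescent by doxorubicin exposure, with DMSO-treated cells serving as the non-senescent control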
# Description: Cells were treated with doxorubicin or control (DMSO) and cultured.
# [4] = test system: bleomycin-induced pulmonary fibrosis mice; test: Bleomycin-induced pulmonary fibrosis mice, Example 31, Table 56; assay type: in vivo, mouse; details: untreated = 100%
# Outline: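 After treatment with test compound or vehicle alone, lungs of bleomycin-induced pulmonary fibrosis mice were harvested. Total RNA extracted and gene expression quantified by qRT-PCR.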
# [5] = test system: carbon tetrachloride-induced liver fibrosis mice; test: Carbon tetrachloride-induced liver fibrosis mice, Example 31, Table 57; assay type: in vivo, mouse; details: CCl4-induced liver fibrosis mice, untreated = 100%
# Outline: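 Mice with induced hepatic fibrosis received either the test compound or, as controls, an equal volume of vehicle solution alone. Once dosing ended, liver tissue was harvested and total RNA was isolated. cDNA was synthesized from this RNA, and quantitative RT-PCR was run on it to measure hepatic mRNA levels of the fibrosis- and senescence-related genes.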
# [6] = test system: naturally aged mice; test: Anti-aging evaluation in naturally aged mice, Example 31, Table 55; assay type: in vivo, mouse; details: for Femur Ctsk mRNA / Kidney Agtr1a mRNA / Liver IL6 mRNA / Liver MMP3 mRNA / Liver p16 mRNA / Open Field Test Time in Center: untreated = 100%; for Heart Sur2a mRNA / Joint Col2a1 mRNA / Skin Col1a1 mRNA / Skin SDF1 mRNA: untreated = 1.0; for Muscle Mass: untreated 0.64 g; for Fat Mass: untreated 0.82 g; for Cataract incidence: untreated 83%;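 for all read-outs here: Vehicle-dosed control mice received solution alone at matching volume, values compare test-compound-treated aged mice against that control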
# [7] = test system: naturally aged C57BL6J mice; assay type: in vivo, mouse; details: mouse, in vivo
SMILES,HMGN1 [3] [%],Lung p16 mRNA [4],Col1a1 mRNA [4],Survival [2],Liver p16 mRNA [5],Col1a1 mRNA [5],Femur Ctsk mRNA [6] [%],Heart Sur2a mRNA [6] [fold],Joint Col2a1 mRNA [6] [fold],Kidney Agtr1a mRNA [6] [%],Liver IL6 mRNA [6] [%],Liver MMP3 mRNA [6] [%],Liver p16 mRNA [6] [%],Open Field Test Time in Center [6] [%],Skin Col1a1 mRNA [6] [Fold],Skin SDF1 mRNA [6] [fold],Muscle Mass [6] [g],Fat Mass [6] [g],Cataract incidence [6] [%],wound/damage healing improvement [7],also measured
OO [H2O2],,,,,,,,,,,,,,,,,,,,,removal of senescent cells [1]: hardly removed
"O=c1c2ccccc2[se]n1CCn1[se]c2ccccc2c1=O [LX-112, 1,2-[bis(1,2-benzisoselenazolone-3 (2H)-ketone)]ethane]",,,,,,,,,,,,,,,,,,,,,death of senescent cells by medium supernatant ([2]; supernatants from proliferating and senescent death-induced cells): selectively induced the death of senescent cells; also recorded: same results
CCn1c(C#CCNc2ccccc2)cc2cc(CNC)ccc21 [LX-905],217,67 (±5.5) %,59 (±13.3) %,46.5,76 (±6.0) %,71 (±7.5) %,62,2.4,2.3,52,38,76,67,241,2.0,1.5,0.69,1.08,65,,
"NCC(=O)CCC(=O)O [LX-1103, 5-Aminolevulinic acid]",158,73 (±3.2) %,76 (±5.3) %,101.8,77 (±3.5) %,60 (±6.9) %,78,2.4,2.8,76,70,68,47,183,2.3,1.7,0.68,0.89,54,,
"O=C(O)c1cc(/N=N/c2ccc(S(=O)(=O)Nc3ccccn3)cc2)ccc1O [LX-1302, Sulfasalazine]",147,41 (±1.5) %,59 (±2.6) %,98.5,52 (±4.4) %,48 (±3.2) %,75,2.3,2.5,62,48,47,55,201,2.4,1.8,0.70,0.92,73,,
"Cc1oncc1C(=O)Nc1ccc(C(F)(F)F)cc1 [LX-1603, Leflunomide]",163,78 (±6.1) %,48 (±2.5) %,97.5,67 (±3.5) %,54 (±2.9) %,64,2.0,2.3,77,61,73,74,,2.6,1.7,0.69,0.92,78,,
"COc1cc(OC)cc(N(CCNC(C)C)c2ccc3ncc(-c4cnn(C)c4)nc3c2)c1 [LX-1903, Erdafitinib]",,73 (±6.6) %,70 (±9.3) %,62.8,67 (±9.2) %,62 (±6.9) %,77,1.4,1.7,,58,75,69,161,1.2,1.4,0.69,0.97,79,,
C[C@@H]1C(=O)C(C#N)=C[C@]2(c3ccccc3)c3c(c(-c4cncnc4)nn3C)CC[C@@H]12 [LX-2408],,,,,,,,,,,,,,,,,,,,damage treatment and recovery,
C[C@@H]1C(=O)C(C#N)=C[C@]2(C)c3nc(CCO)n(-c4ccccc4)c3CC[C@@H]12 [LX-2409],,,,,,,,,,,,,,,,,,,,damage treatment and recovery,
CC(O)[C@]1(C)C(=O)C(C#N)=C[C@]2(C)C3=CC(=O)[C@]45OC(=O)[C@@]6(CCC(C)(C)C[C@H]64)CC[C@@]5(C)[C@]3(C)CC[C@@H]12 (stereo partly drawn) [LX-2501],,,,,,,,,,,,,,,,,,,,damage treatment and recovery,
CCC[C@H]1C(=O)C(C#N)=C[C@@]2(C)c3nc(-c4cccc5ccccc45)nc(-c4ccccc4F)c3CC[C@H]12 [LX-2502],,,,,,,,,,,,,,,,,,,,damage treatment and recovery,
CCC[C@H]1C(=O)C(C#N)=C[C@@]2(C)c3nc(-c4cccc5ncccc45)nc(-c4ccccc4F)c3CC[C@H]12 [LX-2503],,,,,,,,,,,,,,,,,,,,damage treatment and recovery,
